In paper PMC12133982, “Predominant T-cell epitopes of SARS-CoV-2 restricted by multiple prevalent HLA-B and HLA-C allotypes in Northeast Asia” (Frontiers in Immunology, 2025):
Peptide text beside a SMILES is read from it.

Experiments:
HLA-B1501 = HLA-B1501 (Homo sapiens, UniProt P01889, A329T/A93T/A95T/C349S/D201E/D98Y/E187L/E204Q/E69M/E70A/K202T/N87E/Q94N/R155S/R180W/S121R/S35A/S48A/V306I/V36M/Y140S/Y91S); test: Competitive peptide binding assay, CIR-B1501; settings: HMy2.CIR-B1501 cells, reference Cy5-[…], class from inhibition at 5 and 15 μM, flow cytometry MFI; read-out: Binding affinity with HLA-B1501
Description: (§1) Then, competitive peptide binding assays were performed.

HLA-B1502 = HLA-B1502 (Homo sapiens, UniProt P01889, A329T/A93T/A95T/C349S/D201E/D98Y/E187L/E204Q/E69M/E70A/H137Y/K202T/L119I/Q94N/R155S/R180L/S121R/S35A/S48A/T118I/V306I/V36M/Y140S/Y91S); test: Competitive peptide binding assay, CIR-B1502; settings: HMy2.CIR-B1502 cells, reference Cy5-[…], class from inhibition at 5 and 15 μM, flow cytometry MFI; read-out: Binding affinity with HLA-B1502
Description: as §1

HLA-B1301 = HLA-B1301 (Homo sapiens, UniProt P01889, A65T/A93T/A95T/D138N/D201E/D98Y/E176V/E204Q/E69M/E70A/G107R/K202T/L105A/L119I/N104T/N87E/Q94N/R106L/R155S/R169L/R180L/S101N/S121R/S35A/S48T/T118I/V127L/V36M/Y140L/Y91S); test: Competitive peptide binding assay, CIR-B1301; settings: HMy2.CIR-B1301 cells, reference Cy5-[…], class from inhibition at 5 and 15 μM, flow cytometry MFI; read-out: Binding affinity with HLA-B1301
Description: as §1

HLA-B3501 = HLA-B3501 (Homo sapiens, UniProt P01889, A329T/A93T/A95T/C349S/D201E/D98Y/E176V/E187L/E204Q/E69T/I218V/K202T/L119I/Q94N/R155S/R180L/S121R/S35A/S48A/T118I/V127L/V306I/V36M/Y140S/Y91F); test: Competitive peptide binding assay, CIR-B3501; settings: HMy2.CIR-B3501 cells, reference Cy5-[…], class from inhibition at 5 and 15 μM, flow cytometry MFI; read-out: Binding affinity with HLA-B3501
Description: as §1

HLA-B4601 = HLA-B4601 (Homo sapiens, UniProt P01889, A329T/A93R/C349S/D201E/E100V/E187L/E204Q/E69M/E70A/I90K/K202T/N87E/R155S/R180W/S121R/S35A/S48A/V306I/V36M/Y140S); test: Competitive peptide binding assay, CIR-B4601; settings: for IC50: HMy2.CIR-B4601 cells, reference Cy5-[…], class from inhibition at 5 and 15 μM, flow cytometry MFI, read-out: Binding affinity with HLA-B4601; for inhibition at 5 µM: read-out: Inhibition % of Cy5-reference peptide binding, CIR-B4601, 5μM peptide; for inhibition at 15 µM: read-out: Inhibition % of Cy5-reference peptide binding, CIR-B4601, 15μM peptide
Description: as §1

HLA-B5101 = HLA-B5101 (Homo sapiens, UniProt P01889, A329T/A93T/A95T/C349S/D138N/D201E/D98Y/E187L/E204Q/E69T/G107R/I218V/K202T/L105A/L119W/N104I/Q94N/R106L/R155S/R180L/S101N/S121T/S35A/S48A/V306I/V36M/Y195H/Y91F); test: Competitive peptide binding assay, CIR-B5101; settings: HMy2.CIR-B5101 cells, reference Cy5-[…], class from inhibition at 5 and 15 μM, flow cytometry MFI; read-out: Binding affinity with HLA-B5101
Description: as §1

HLA-B5801 = HLA-B5801 (Homo sapiens, UniProt P01889, A329T/C349S/D201E/D98Y/E176V/E187L/E204Q/E69T/G107R/I218V/I90N/K202T/L105A/L119I/N104I/N87E/Q89R/Q94S/R106L/R155S/R180L/R86G/S101N/S121R/S35A/S48A/T118I/V127L/V306I/V36M/Y140S/Y91M); test: Competitive peptide binding assay, CIR-B5801; settings: HMy2.CIR-B5801 cells, reference Cy5-[…], class from inhibition at 5 and 15 μM, flow cytometry MFI; read-out: Binding affinity with HLA-B5801
Description: as §1

HLA-B4001 = HLA-B4001 (Homo sapiens, UniProt P01889, A65T/A93T/A95T/D138N/D98Y/E176V/E69K/N87E/Q56L/Q94N/R180L/S121R/S35A/S48T/T167S/V36M/W171L/Y33H/Y91S); test: Competitive peptide binding assay, CIR-B4001; settings: HMy2.CIR-B4001 cells, reference Cy5-[…], class from inhibition at 5 and 15 μM, flow cytometry MFI; read-out: Binding affinity with HLA-B4001
Description: as §1

HLA-B1302 = HLA-B1302 (Homo sapiens, UniProt P01889, A65T/A93T/A95T/D138N/D201E/D98Y/E176V/E204Q/E69M/E70A/G107R/K202T/L105A/L119W/N104T/N87E/Q94N/R106L/R155S/R169L/R180L/S101N/S121T/S35A/S48T/V127L/V36M/Y140L/Y91S); test: Competitive peptide binding assay, CIR-B1302; settings: HMy2.CIR-B1302 cells, reference Cy5-MMWYWGPSL, class from inhibition at 5 and 15 μM, flow cytometry MFI; read-out: Binding affinity with HLA-B1302
Description: as §1

HLA-B4403 = HLA-B4403 (Homo sapiens, UniProt P01889, A223V/A65T/A93T/A95T/D201E/D98Y/E176V/E187L/E204Q/E69K/G107R/H137Y/K202T/L105A/L119I/N104T/N87E/Q56L/Q94N/R106L/R155S/R180L/S101N/S121R/S35A/S48T/T118I/V36M/W191S/Y140D/Y91S); test: Competitive peptide binding assay, CIR-B4403; settings: HMy2.CIR-B4403 cells, reference Cy5-CYMEAVAL, class from inhibition at 5 and 15 μM, flow cytometry MFI; read-out: Binding affinity with HLA-B4403
Description: as §1

HLA-B0702 = biological target: T1, HLA-B0702 (Homo sapiens, UniProt P01889); test: Competitive peptide binding assay, CIR-B0702; settings: HMy2.CIR-B0702 cells, reference Cy5-[…], class from inhibition at 5 and 15 μM, flow cytometry MFI
T1 construct: expressed in transfected cells; host or cells: HMy2.CIR
Description: as §1

Compound	IC50 (HLA-B1501)	IC50 (HLA-B1502)	IC50 (HLA-B1301)	IC50 (HLA-B3501)	IC50 (HLA-B4601)	inhibition at 5 µM (HLA-B4601)	inhibition at 15 µM (HLA-B4601)	IC50 (HLA-B5101)	IC50 (HLA-B5801)	IC50 (HLA-B4001)	IC50 (HLA-B1302)	IC50 (HLA-B4403)	IC50 (HLA-B0702)
CSCC[C@H](NC(=O)[C@H](CCSC)NC(=O)[C@H](CO)NC(=O)[C@H](Cc1ccccc1)NC(=O)[C@H](Cc1c[nH]cn1)NC(=O)[C@H](CCCCN)NC(=O)[C@H](CCCNC(=N)N)NC(=O)[C@H](CC(C)C)NC(=O)[C@@H](N)Cc1ccc(O)cc1)C(=O)O [Epitope Y28] (H-YLRKHFSMM-OH; N-terminus and C-terminus assumed)	< 5 µM	> 15 µM	> 15 µM	5 to 15 µM	< 5 µM	85.7%	91.8%	> 15 µM	> 15 µM	–	–	–	–
CC(C)C[C@H](NC(=O)[C@@H](NC(=O)[C@@H](NC(=O)CNC(=O)[C@H](CCC(N)=O)NC(=O)[C@@H]1CCCN1C(=O)[C@H](CC(C)C)NC(=O)[C@H](CCC(N)=O)NC(=O)[C@@H](N)CC(C)C)[C@@H](C)O)[C@@H](C)O)C(=O)O [Epitope Y61] (H-LQLPQGTTL-OH; N-terminus and C-terminus assumed)	–	–	–	< 5 µM	> 15 µM	20%	33.6%	5 to 15 µM	5 to 15 µM	–	–	–	–
CC(C)[C@H](NC(=O)[C@H](CC(N)=O)NC(=O)[C@H](Cc1ccc(O)cc1)NC(=O)[C@H](C)NC(=O)[C@@H](N)CCCCN)C(=O)N[C@H](C(=O)N[C@@H](CCC(N)=O)C(=O)N[C@@H](C)C(=O)N[C@@H](Cc1ccccc1)C(=O)O)[C@@H](C)O [Epitope Y62] (H-KAYNVTQAF-OH)	5 to 15 µM	–	–	< 5 µM	5 to 15 µM	–	–	–	5 to 15 µM	> 15 µM	> 15 µM	5 to 15 µM	> 15 µM
CC(C)C[C@H](NC(=O)[C@H](Cc1c[nH]cn1)NC(=O)[C@H](Cc1ccccc1)NC(=O)[C@@H](NC(=O)[C@H](CC(=O)O)NC(=O)[C@H](C)NC(=O)[C@H](Cc1ccc(O)cc1)NC(=O)[C@H](CCC(=O)O)NC(=O)[C@@H](N)CCC(N)=O)C(C)C)C(=O)O [Epitope Y71] (H-QEYADVFHL-OH; N-terminus and C-terminus assumed)	5 to 15 µM	–	–	5 to 15 µM	–	–	–	> 15 µM	> 15 µM	5 to 15 µM	> 15 µM	–	–
CC[C@H](C)[C@H](NC(=O)[C@@H]1CCCN1C(=O)[C@@H]1CCCN1C(=O)[C@@H](NC(=O)[C@H](CCCCN)NC(=O)[C@H](Cc1ccc(O)cc1)NC(=O)[C@@H](NC(=O)[C@H](CCC(N)=O)NC(=O)[C@@H](N)CCCCN)[C@@H](C)CC)[C@@H](C)O)C(=O)O [Epitope Y82] (H-KQIYKTPPI-OH; N-terminus and C-terminus assumed)	> 15 µM	> 15 µM	–	< 5 µM	–	–	–	> 15 µM	5 to 15 µM	–	–	–	–
